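In this assay, cells in 96-well plates receive the compound at five concentrations for 48 hours. Endpoints are linearly interpolated between the surrounding concentrations. GI50: concentration for 50% inhibition of growth. The concentration for full growth arrest is given as TGI.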 A value given as a limit tells only on which side of the number the result lay.

Holding throughout (experiment): DTP human tumour cell line panel, 48 h
The test system of test [1] is IGROV1 ovarian.
Test [2] deals with RPMI-8226 leukemia.
Test [3] concerns HOP-92 NSCLC.
Test [4] concerns NCI-H460 lung.
The subject of test [5] is ACHN renal.
In test [6] the test system is A549 NSCLC.
In test [7] the test system is SF-539 CNS.
Test [8] relates to HCC-2998 colon.
Test [9] concerns COLO 205 colon.
For test [10], the system named is UACC-62 melanoma.

The TGI is the concentration giving total growth inhibition. Low readings indicate more potent growth arrest, high ones less potent growth arrest. For `COC(=O)N1CC2C3C4CC(C(c5ccccc5)=C4c4ccccc4)C3C21` (stereo not drawn), the TGI in [1] worked out at 45.6 µM; in test [2] it was 53.4 µM; in test [3], 24.5 µM; in test [4], 32.2 µM; in test [5], 52.3 µM; in test [6] it was 73.1 µM. In addition, the total growth inhibition concentration (TGI) in [7] was 32 µM; in test [8], 31.5 µM; in [9] it was 45.2 µM; in [10] it was 27 µM.
For the molecule `COC(=O)c1cnc(Cl)cn1`, the total growth inhibition concentration (TGI) in test [1] was 97.1 µM; in test [2] it was 59 µM; in [3], above 100 µM; in test [4], above 100 µM; in test [5] it was above 100 µM; in test [6], above 100 µM. The TGI in test [7], in test [9] and in test [10] was above 100 µM each time.
Take `CC(C)C(N)=O`: the TGI in [1], in test [2], in test [3], in [4], in test [5] and in [6] was above 5000 µM each time. The total growth inhibition concentration (TGI) in test [7], in [9] and in test [10] was above 5000 µM throughout.
`O=C(O)/C(Cc1ccc([N+](=O)[O-])cc1)=N\O`: the TGI in test [1], in test [2], in test [3], in test [4], in test [5] and in [6] was above 100 µM in each case. The concentration for total growth inhibition (TGI) in [7], in test [8], in test [9] and in test [10] was above 100 µM throughout.
Usually GI50 stands for the concentration giving 50% growth inhibition. For `O=C(Nc1ccc(-n2ccc3c(NC(=O)c4ccccc4)ncnc32)cc1)Nc1cccc(Cl)c1Cl`, the GI50 is 1.06 µM in test [1]; 0.646 µM in test [2]; 0.847 µM in test [3]; 1.35 µM in test [5]; 0.952 µM in [6]; 1.12 µM in test [7]. The GI50 in [8] is 2.99 µM; in [9], 1.75 µM; in [10], 1.02 µM. Besides, the TGI in test [1] was 3.39 µM; in test [2], 2.76 µM; in test [3] it was 2.48 µM; in test [5] it was 4.06 µM; in test [6] it was 2.22 µM; in test [7], 5.69 µM. The TGI in test [8] was 19.9 µM; in test [9], 7.97 µM; in test [10], 3.29 µM.
On to `CCOC(=O)CC1(c2cccc3ccccc23)OC(=O)c2ccccc21` (stereo not drawn), for which the TGI in [1] was above 100 µM; in [2] it was 64.2 µM; in test [4], above 100 µM; in test [5], above 100 µM; in test [6] it was above 100 µM; in test [8], above 100 µM. Besides, the figures for the TGI in test [9] and in test [10] were 98.5 µM and above 100 µM, respectively.
`O=C(O)CC1NCc2cc3ccccc3nc21` (stereo not drawn): the TGI in test [1], in test [2], in test [3], in test [4], in test [5] and in [6] was above 100 µM in each case. Moreover, the TGI in test [7], in test [8], in [9] and in test [10] was above 100 µM throughout.
Consider `CC(=O)NC1=C[C@@H]([C@H]2COC(C)(C)O2)OC1=O`, for which the concentration for total growth inhibition (TGI) in [1], in test [2], in test [3], in test [4], in test [6] and in test [7] was above 100 µM throughout. Moreover, the total growth inhibition concentration (TGI) in [8], in test [9] and in test [10] was above 100 µM throughout.
In the case of `O=C1Nc2ccc(Cl)cc2/C1=C\c1c(Cl)nc2sccn12`, the total growth inhibition concentration (TGI) in test [1], in test [2], in test [3], in test [5] and in test [8] was above 100 µM throughout.
Take `C=C(OC1C(C)=C2C(C1OC(=O)CCCCCCC)C(C)(OC(C)=O)CC(OC(=O)CCC)C1(O)C2OC(=O)C1(C)O)/C(C)=C/C` (stereo not drawn): the TGI in test [1] was determined as 11 µM; in [2], 0.0256 µM; in [3], 3.09 µM; in test [4], 0.046 µM; in [6], 6.16 µM; in [7], 8.01 µM. Further, the total growth inhibition concentration (TGI) in test [8] was determined as 0.778 µM; in test [9], 0.101 µM; in [10] it was 0.0273 µM. Moreover, the GI50 in [2], in test [4], in test [6], in test [7], in test [8] and in test [9] was below 0.0001 µM each time.
For the molecule `c1csc(C[N+]23CN4CN(CN(C4)C2)C3)c1`, the TGI was 70.2 µM in test [1]; 58.7 µM in test [2]; 44.9 µM in test [3]; 49.2 µM in [4]; above 100 µM in test [5]; 87 µM in test [6]. Moreover, the TGI is above 100 µM in [7], 34.1 µM in [8], 40.8 µM in [9] and 47.5 µM in test [10].

The record behind these values is PubChem BioAssay (NCI).
